Assay [1] concerns mildew of wheat (Blumeria graminis forma specialis tritici). Briefly: Action against mildew of wheat (protective spray, wheat seedlings cv. Kanzler). Particulars: individual active ingredient, 7 days after inoculation. It is filed as in vivo. As for the experimental part:
(§1) The active compounds, separately or together, are formulated as a 10% emulsion in a mixture of 70% by weight of cyclohexanone, 20% by weight of Nekanil® LN (Lutensol® AP6, wetting agent having emulsifying and dispersing action based on ethoxylated alkylphenols) and 10% by weight of Emulphor® EL (Emulan® EL, emulsifier based on ethoxylated fatty alcohols) and diluted with water to the desired concentration.
(§2) Evaluation is carried out by determining the infected leaf areas in percent. These percentages are converted into efficacies. The efficacy (W) is calculated as follows using Abbot's formula: […]
α corresponds to the fungal infection of the treated plants in % and β corresponds to the fungal infection of the untreated (control) plants in % An efficacy of 0 means that the infection level of the treated plants corresponds to that of the untreated control plants; an efficacy of 100 means that the treated plants were not infected.
The expected efficacies of the mixtures of the active compounds were determined using Colby's formula [R. S. Colby, Weeds 15, 20-22 (1967)] and compared with the observed efficacies.
Colby's formula: E×x+y−x·y/100
E expected efficacy, expressed in % of the untreated control, when using the mixture of the active compounds A and B at the concentrations a and b x efficacy, expressed in % of the untreated control, when using active compound A at the concentration a y efficacy, expressed in % of the untreated control, when using active compound B at the concentration b.
Leaves of wheat seedlings of the cultivar “Kanzler”, grown in pots, were sprayed to run-off point with an aqueous formulation of active ingredient which had been prepared using a stock solution comprising 10% of active ingredient, 85% of cyclohexanone and 5% of emulsifier, and 24 hours after the spray coating had dried on, the leaves were dusted with spores of mildew of wheat (Blumeria graminis forma specialis tritici). […] After 7 days, the extent of the development of the mildew was determined visually in % infection of the entire leaf surface. […]

In assay [2] the test system is mildew of cucumber (Sphaerotheca fuliginea). The experiment in a line: Action against mildew of cucumber (protective spray, cucumber seedlings cv. Chinesische Schlange). The class given is in vivo. The following applies: individual active ingredient, 7 days. As for the experimental part:
as §1, §2
The expected efficacies of the mixtures of the active compounds were determined using Colby's formula [R. S. Colby, Weeds 15, 20-22 (1967)] and compared with the observed efficacies. […]
Leaves of cucumber seedlings of the cultivar “Chinesische Schlange” which had been grown in pots were, at the cotyledon stage, sprayed to run-off point with an aqueous preparation of active ingredient which had been prepared using a stock solution made of 10% active ingredient, 85% of cyclohexanone and 5% of emulsifier. […] The extent of the mildew development was then determined visually in % infection of the cotyledon surface. […]

This note sets out measurements from patent US6515000B2, “Fungicidal mixtures based on amide compounds” (BASF Aktiengesellschaft, priority 2000, dated 2003).

Consider dinocap [dinocap (II)], for which the “Efficacy in % of the untreated control” value in assay [1] (6 ppm in the spray liquor) was found to be 10%; in assay [1] (12.5 ppm in the spray liquor) it was 10%; in assay [1] (50 ppm in the spray liquor) it was 70%; in assay [2] (6 ppm in the spray liquor) it was 10%; in assay [2] (12.5 ppm in the spray liquor) it was 20%.
